According to US20260273020A1, “OBESTATIN FOR USE AS ANTINEOPLASTIC AGENT IN THE TREATMENT OF PANCREATIC CANCER” (SERVIZO GALEGO DE SAÚDE, priority 2023, published 2026):

How the values were obtained:
Format in all cases: in vivo, C57BL/6J mice
[1] = test system: aSMA, HSP47, vimentin, collagen I, fibronectin, ADRP; assay: Immunoblot of pancreatic tumors: fibrosis and CAF markers; details: obestatin 500 nmol/Kg/72 h
Procedure: (§1) FIG. 6. Immunoblot analysis of aSMA, vimentin, collagen I, fibronectin, and ADPR in the pancreatic tumors of C57BL/6J mice (n=4) orthotopically injected with KPC FC1242 cells and treated with vehicle [NaCl, 0.9% (w/v)] or obestatin (500 nmol/Kg/72 h). Results are expressed as fold of control of the non-treated injected mice [control; mean±SE (*, P<0.05)].
(§2) Mice were weighed at set times over the 15-day period. The sterilized surgical material was used for the tissue extraction. Pancreases and muscles were carefully removed from each animal minimizing contamination with surrounding tissue or mouse hair. Pancreases and muscles were weighed. The skeletal muscles selected were: tibialis anterior, TA; extensor digitorum longus, EDL; gastrocnemius, GAST; soleus, SOL; and diaphragm, DIA. Pancreases were also measured with a scale (cm) and pictures were taken. • Histology—Pancreas samples for histology were fixed in 4% paraformaldehyde in PBS at room temperature overnight. After fixation, samples were dehydrated and embedded in paraffin blocks. For this study, 3-micron sections were cut from each block and placed on pre-cleaned slides (Thermo Fisher Scientific, Waltham, MA, USA). The sectioned tissue slides were covered with a thin layer of paraffin, stoked at 60° C. for 1 hour and stored protected from light at room temperature to preserve the antigenicity of sections. • Immunoblot—For immunoblot analysis, pancreases were immediately frozen in dry ice and stored at −80° C. until use. Tissues were homogenized using a TissueLyser II tissue homogenizer (Qiagen, Hilden, DE), in 200 μL of RIPA lysis buffer at 30 Hz for 3 min. The lysates were clarified by centrifugation (18,000×g, 15 min, 4° C.), and the protein concentration was quantified by the Quantipro™ BCA assay kit (Sigma-Aldrich, St. Louis, MO, US).
Tissues were disrupted and homogenized in ice-cold lysis buffer [50 mM Tris-HCl pH 7.2, 150 mM NaCl, 1 mM EDTA, 1% (v/v) NP-40, 0.25% (w/v) Na-deoxycholate, protease inhibitor cocktail (PIC; 1:100; Sigma Chemical Co., St. Luis, MO, US), phosphatase inhibitor cocktail (PHIC; 1:100; Sigma Chemical Co., St. Luis, MO, US)] with 5 mm stainless steel beads using a TissueLyser (Qiagen, Hilden, DE) at 30 Hz for 3 min. The soluble cell lysates were pre-cleared by centrifuging at 14,000 rpm for 15 min. Supernatants were recovered and the protein was quantified with BCA Protein Assay Kit (Thermo Fisher Scientific, Rockford, IL, US). The same amount of protein for each sample was separated on 7-15% SDS/polyacrylamide gels and transferred to nitrocellulose membranes (Bio-Rad, Hercules, CA, US). The blots were incubated with 5% bovine serum albumin (BSA) in a Tris buffer solution (TBS) containing Tween-20 [TBST; 20 mM Tris-HCl (pH 8.0), 150 mM NaCl, 0.1% (v/v) Tween-20, solution used for all incubation and washing steps] for 1 h. The blots were then incubated with the corresponding primary antibodies and subsequently were incubated with the corresponding peroxidase-conjugated IgG antibody (Table 1). After washing, the signals were visualized using an ECL plus Western Blotting Detection System (Pierce ECL Western Blotting Substrate; Thermo Fisher Scientific, Pierce, Rockford, IL, US). The image processing was performed using the NIH Image Software ImageJ 1.53o (National Institutes of Health, Bethesda, MD, US).

[2] = test system: Ki67 positive proliferative cells; assay: Ki67 immunohistochemistry of pancreatic tumours; details: tumour area; obestatin 500 nmol/Kg/72 h
Procedure: (§3) FIG. 4. (A) Analysis and quantification of Ki67 positive proliferative cells by immunohistochemistry in the pancreatic tumors of C57BL/6J mice (n=4) orthotopically injected with KPC FC1242 cells and treated with vehicle [NaCl, 0.9% (w/v)] or obestatin (500 nmol/Kg/72 h). Magnification: 4×. (B) Immunoblot analysis of pERK1/2(T202/Y204), ERK1/2, pAkt(S473), and Akt in tumoral pancreatic tissue. Results are expressed as fold of control of the non-treated injected mice [control; mean±SE (*, P<0.05)].
Mice were weighed at set times over the 15-day period. The sterilized surgical material was used for the tissue extraction. […] Pancreases were also measured with a scale (cm) and pictures were taken. • Histology—Pancreas samples for histology were fixed in 4% paraformaldehyde in PBS at room temperature overnight. […] The lysates were clarified by centrifugation (18,000×g, 15 min, 4° C.), and the protein concentration was quantified by the Quantipro™ BCA assay kit (Sigma-Aldrich, St. Louis, MO, US). […]
EnVision™ peroxidase FLEX/HRP (Dako Agilent Technologies, Glostrup; DK) was employed as a detection system. […] Ki67 was analysed immunohistochemically. […] For Ki67 expression quantification in the samples, ten fields of the tumour representative DAB images were quantified by using the Fiji/Image J software.

[3] = test system: pERK1/2(T202/Y204), ERK1/2, pAkt(S473), Akt; assay: Immunoblot of tumoral pancreatic tissue: ERK1/2 and Akt
Procedure: as §3
as §2, with “The sectioned tissue slides were covered with a thin layer of paraffin, stoked at 60° C. for 1 hour and stored protected from light at room temperature to preserve the antigenicity of sections. • Immunoblot—For immunoblot analysis, pancreases were immediately frozen in dry ice and stored at −80° C. until use. Tissues were homogenized using a TissueLyser II tissue homogenizer (Qiagen, Hilden, DE), in 200 μL of RIPA lysis buffer at 30 Hz for 3 min.” left out
Tissues were disrupted and homogenized in ice-cold lysis buffer [50 mM Tris-HCl pH 7.2, 150 mM NaCl, 1 mM EDTA, 1% (v/v) NP-40, 0.25% (w/v) Na-deoxycholate, protease inhibitor cocktail (PIC; 1:100; Sigma Chemical Co., St. Luis, MO, US), phosphatase inhibitor cocktail (PHIC; 1:100; Sigma Chemical Co., St. Luis, MO, US)] with 5 mm stainless steel beads using a TissueLyser (Qiagen, Hilden, DE) at 30 Hz for 3 min. […] Supernatants were recovered and the protein was quantified with BCA Protein Assay Kit (Thermo Fisher Scientific, Rockford, IL, US). […]

[4] = test system: pNF-kB p65(S536), pSTAT3(S727); assay: Immunoblot of pancreatic tumors: NF-kB and STAT3; details: obestatin 500 nmol/Kg/72 h
Procedure: as §1, with “8.” for “6.”, “pNF-kB p65(S536), NF-kB p65, pSTAT3(Y705), pSTAT3(S727),” for “aSMA, vimentin, collagen I, fibronectin,”, “STAT3” for “ADPR”
as §2, with “The sectioned tissue slides were covered with a thin layer of paraffin, stoked at 60° C. for 1 hour and stored protected from light at room temperature to preserve the antigenicity of sections. • Immunoblot—For immunoblot analysis, pancreases were immediately frozen in dry ice and stored at −80° C. until use. Tissues were homogenized using a TissueLyser II tissue homogenizer (Qiagen, Hilden, DE), in 200 μL of RIPA lysis buffer at 30 Hz for 3 min.” left out, “US). […]” for “US).”

[5] = obestatin 500 nmol/Kg/72 h, referenced to non-treated animals

obestatin
adipophilin (ADRP) diminished [1]: 42.6±8.8%
augment of vimentin [1]: 111.1±19.1%
higher levels of HSP47 [1]: 49.5±17.7%
increased expression of aSMA [1]: 53.7±7.3%
inhibition of expression of collagen [1]: 60.1±2.9%
inhibition of expression of fibronectin [1]: 57.0±7.1%
diminution in the number of Ki67 positive cells [2]: 56.0±5.2%
total expressions of ERK and AKT ([3]; Western blotting): unchanged
Akt activation augmented, pAkt(S473) [3, 5]: 369.5±100.1%
reduction in ERK1/2 activation, pERK1/2(T202/Y204) [3, 5]: ~50%
downregulation of pNF-KB p65(S536) [4]: 43.6±9.0%
downregulation of pSTAT3(S727) [4]: 52.3±12.4%
